Laboratory results as given in ChEMBL document CHEMBL4350974, “Synthesis and biological evaluation of methylpyrimidine-fused tricyclic diterpene analogs as novel oral anti-late-onset hypogonadism agents” (Eur J Med Chem, 2019).
Calls of active or inactive are those of the source. The calls are words filed in the database; no cut-off is given here.

Tests used:
[1] = tested on: Rattus norvegicus; assay: Anti late-onset hypogonadism activity in cyclophosphamide-induced Sprague-Dawley rat model of partial androgen deficiency assessed as intratesticular testosterone level at 100 mg/kg, po qd administered for 4 weeks by ELISA (reference value: 137.99 +/- 19.27 nmol/L); type: functional
[2] = tested on: Rattus norvegicus; assay: Anti late-onset hypogonadism activity in cyclophosphamide-induced Sprague-Dawley rat model of partial androgen deficiency assessed as increase in LC3 expression at 50 to 100 mg/kg by immunohistochemical analysis; type: functional, organism-based
[3] = Half-life in Sprague-Dawley rat plasma at 50 mg/kg, po up to 12 hrs by LC/MS analysis; type: ADME, organism-based
[4] = tested on: Rattus norvegicus; assay: Anti late-onset hypogonadism activity in cyclophosphamide-induced Sprague-Dawley rat model of partial androgen deficiency assessed as increase in StAR mRNA level at 50 to 100 mg/kg by RT-PCR analysis; type: functional, organism-based
[5] = Toxicity in cyclophosphamide - induced Sprague-Dawley rat model of partial androgen deficiency assessed as effect on Sertoli cells arrangement at 50 to 100 mg/kg by HE staining based histopathological analysis; type: organism-based; conditions: in vivo
[6] = Toxicity in cyclophosphamide-induced Sprague-Dawley rat model of partial androgen deficiency assessed as decrease in body weight at 50 to 100 mg/kg, po qd administered for 4 weeks and measured every 3 days; type: organism-based; conditions: in vivo
[7] = organism: Rattus norvegicus; assay: Anti late-onset hypogonadism activity in cyclophosphamide-induced Sprague-Dawley rat model of partial androgen deficiency assessed as prevention of testicular atrophy; type: functional, organism-based
[8] = tested on: Rattus norvegicus; assay: Anti late-onset hypogonadism activity in cyclophosphamide-induced Sprague-Dawley rat model of partial androgen deficiency assessed as weight of seminal vesicles at 100 mg/kg, po qd administered for 4 weeks (reference value: 1.33 +/- 0.26 g); type: functional
[9] = tested on: Rattus norvegicus; assay: Anti late-onset hypogonadism activity in cyclophosphamide-induced Sprague-Dawley rat model of partial androgen deficiency assessed as weight of seminal vesicles at 50 mg/kg, po qd administered for 4 weeks (reference value: 1.33 +/- 0.26 g); type: functional
[10] = tested on: Rattus norvegicus; assay: Anti late-onset hypogonadism activity in cyclophosphamide-induced Sprague-Dawley rat model of partial androgen deficiency assessed as weight of testis at 100 mg/kg, po qd administered for 4 weeks (reference value: 1.47 +/- 0.13 g); type: functional
[11] = tested on: TM3; assay: Induction of autophagy in mouse TM3 cells assessed as phosphorylation of AMPK at 10 to 100 uM by Western blot analysis; type: functional, cell-based
[12] = tested on: TM3; assay: Induction of autophagy in mouse TM3 cells assessed as dephosphorylation of mTOR at 10 to 100 uM by Western blot analysis; type: functional, cell-based
[13] = tested on: TM3; assay: Induction of autophagy in mouse TM3 cells assessed as increase in ATG5 protein level at 10 to 100 uM by Western blot analysis; type: functional, cell-based
[14] = tested on: TM3; assay: Induction of autophagy in mouse TM3 cells assessed as increase in LC3-II/LC3-I ratio at 10 to 100 uM after 24 hrs by Western blot analysis; type: functional, cell-based
[15] = tested on: TM3; assay: Induction of testosterone production in mouse TM3 cells assessed as increase in testosterone level at 20 uM measured after 24 hrs by ELISA relative to control; type: functional
[16] = Cytotoxicity against human NCM460 cells assessed as reduction in cell viability measured after 24 hrs by sulforhodamine B assay; type: cell-based
[17] = Cytotoxicity against mouse NIH/3T3 cells assessed as reduction in cell viability measured after 24 hrs by sulforhodamine B assay; type: cell-based, NIH3T3
[18] = tested on: TM3; assay: Induction of testosterone production in mouse TM3 cells assessed as increase in 3beta-HSD mRNA expression level after 24 hrs by qRT-PCR analysis; type: functional, cell-based
[19] = tested on: TM3; assay: Induction of autophagy in mouse TM3 cells assessed as increase in LC3-II protein level at 10 to 100 uM by Western blot analysis; type: functional, cell-based
[20] = Toxicity in cyclophosphamide - induced Sprague-Dawley rat model of partial androgen deficiency assessed as effect on heart at 50 to 100 mg/kg by HE staining based histopathological analysis; type: organism-based; conditions: in vivo
[21] = Toxicity in cyclophosphamide - induced Sprague-Dawley rat model of partial androgen deficiency assessed as effect on liver at 50 to 100 mg/kg by HE staining based histopathological analysis; type: organism-based; conditions: in vivo
[22] = Toxicity in cyclophosphamide - induced Sprague-Dawley rat model of partial androgen deficiency assessed as effect on lung at 50 to 100 mg/kg by HE staining based histopathological analysis; type: organism-based; conditions: in vivo
[23] = Toxicity in cyclophosphamide - induced Sprague-Dawley rat model of partial androgen deficiency assessed as swelling of seminiferous tubules at 50 to 100 mg/kg by HE staining based histopathological analysis; type: organism-based; conditions: in vivo
[24] = Toxicity in cyclophosphamide - induced Sprague-Dawley rat model of partial androgen deficiency assessed as sperm viability at 50 mg/kg by semen analysis (reference value: 95.1 +/- 3.2 %); type: organism-based; conditions: in vivo
[25] = Toxicity in cyclophosphamide - induced Sprague-Dawley rat model of partial androgen deficiency assessed as sperm viability at 100 mg/kg by semen analysis (reference value: 95.1 +/- 3.2 %); type: organism-based; conditions: in vivo
[26] = Toxicity in cyclophosphamide - induced Sprague-Dawley rat model of partial androgen deficiency assessed as sperm motility at 50 mg/kg by semen analysis (reference value: 88.3 +/- 7.3 %); type: organism-based; conditions: in vivo
[27] = Toxicity in cyclophosphamide - induced Sprague-Dawley rat model of partial androgen deficiency assessed as sperm motility at 100 mg/kg by semen analysis (reference value: 88.3 +/- 7.3 %); type: organism-based; conditions: in vivo
[28] = tested on: Rattus norvegicus; assay: Anti late-onset hypogonadism activity in cyclophosphamide-induced Sprague-Dawley rat model of partial androgen deficiency assessed as increase in 3 beta- HSD mRNA level at 100 mg/kg by RT-PCR analysis; type: functional, organism-based
[29] = Cmax in Sprague-Dawley rat plasma at 50 mg/kg, po up to 12 hrs by LC/MS analysis; type: ADME, organism-based; set-up: dose 50 mg/kg, route oral
[30] = AUC (0 to infinity) in Sprague-Dawley rat plasma at 50 mg/kg, po by LC/MS analysis; type: ADME, organism-based; set-up: dose 50 mg/kg, route oral, time infinity
[31] = AUC (0 to infinity) in Sprague-Dawley rat plasma at 5 mg/kg, iv by LC/MS analysis; type: ADME, organism-based; set-up: dose 5 mg/kg, route intravenous, time infinity
[32] = Volume of distribution in Sprague-Dawley rat plasma at 50 mg/kg, po up to 12 hrs by LC/MS analysis; type: ADME, organism-based; conditions: in vivo
[33] = Clearance in Sprague-Dawley rat at 50 mg/kg, po up to 12 hrs by LC/MS analysis; type: ADME, organism-based; conditions: in vivo
[34] = Clearance in Sprague-Dawley rat at 5 mg/kg, iv up to 5 hrs by LC/MS analysis; type: ADME, organism-based; conditions: in vivo
[35] = Mean residence time in Sprague-Dawley rat at 50 mg/kg, po by LC/MS analysis; type: ADME, organism-based; conditions: in vivo
[36] = Mean residence time in Sprague-Dawley rat at 5 mg/kg, iv by LC/MS analysis; type: ADME, organism-based; conditions: in vivo
[37] = tested on: TM3; assay: Induction of testosterone production in mouse TM3 cells assessed as increase in StAR protein expression level after 24 hrs by Western blot analysis; type: functional, cell-based
[38] = tested on: Rattus norvegicus; assay: Anti late-onset hypogonadism activity in cyclophosphamide-induced Sprague-Dawley rat model of partial androgen deficiency assessed as increase in serum total testosterone level at 50 to 100 mg/kg, po qd administered for 4 weeks and measured every 2 weeks by ELISA; type: functional, organism-based

CNC(=O)c1cc2c(cc1OC)[C@@]1(C)Cc3cnc(C)nc3C(C)(C)C1CC2 (mixture of isomers)
Activity [1]: 185.58 nmol/L | Activity [2]: Active | half-life [3]: 4.44 h | Activity [4]: Active | Activity [5]: Toxic | Activity [6]: Non-Toxic | Activity [7]: Active | Activity [8]: 1.68 g | Activity [9]: 1.53 g | Activity [10]: 1.66 g | Activity [11]: Active | Activity [12]: Active | Activity [13]: Active | Activity [14]: Active | Activity [15]: 174.6% | CC50 at 24 h [16]: > 200 µM | CC50 at 24 h [17]: > 200 µM | Activity [18]: Dose-dependent effect | Activity [19]: Active | Activity [20]: Non-Toxic | Activity [21]: Non-Toxic | Activity [22]: Non-Toxic | Activity [23]: Toxic | Activity [24]: 96.5% | Activity [25]: 98% | Activity [26]: 92.6% | Activity [27]: 94.6% | Activity [28]: Active | Cmax [29]: 239 ng/mL | AUC(0-inf) [30]: 3140 ng·h/mL | AUC(0-inf) [31]: 551 ng·h/mL | Vd [32]: 106.27 L/kg | CL/F [33]: 270 mL/min/kg | clearance [34]: 155 mL/min/kg | MRT [35]: 7.76 h | MRT [36]: 9.92 h | Activity [37]: Dose-dependent effect | Activity [38]: Active
